Results published in patent US20020061888A1, “Combination therapy for the prophylaxis and treatment of hyperlipidemic conditions and disorders” (priority 2000, published 2002).

Assay: Water uptake experiments (Dynamic Vapor Sorption, water sorption/desorption isotherms at 25° C.)
Format: physicochemical
Description: A dry sample of the crystalline form having a melting point or a decomposition point of about 278° C. to about 285° C. (i.e., Form II) typically gains less than about 1% of its own weight when equilibrated under 80% relative humidity (RH) air at 25° C. […] For the present purposes, the term “essentially 0% RH” means less than about 1% RH. The term “equilibrated” means that the change in weight of a sample over time at a given relative humidity is less than 0.0003% ((dm/dt)/m0 ×100, where m is mass in mg, m0 is initial mass, and t is time in minutes).
Water sorption experiments are performed on a Dynamic Vapor Sorption (DVS) apparatus (DVS-1000 manufactured by Surface Measurements Systems, Inc.). Experiments are performed at 25° C. by initially drying the material of interest (about 10 mg sample) from 30% relative humidity (RH) ([…] RH step) by purging with dry nitrogen until no further weight change was observed. The samples are then exposed to a stepwise (10% RH steps) increase in RH from about 0 to about 90% RH. Each successive step is initiated when the change in weight over time at the relative humidity was less than 0.0003% ((dm/dt)/m0×100, where m is mass in mg, m0 is initial mass, and t is time in minutes). The sample is then taken through the reverse of the stepwise % RH increase. The data are collected on a computer and analyzed using SMS' proprietary MS-Excel macro interface software.

CCCCC1(CCCC)CS(=O)(=O)c2ccc(N(C)C)cc2[C@@H](c2ccc(OCc3ccc(C[N+]45CCN(CC4)CC5)cc3)cc2)[C@H]1O [Form I, (4R,5R)-1-((4-(4-(3,3-dibutyl-7-(dimethylamino)-2,3,4,5-tetrahydro-4-hydroxy-1,1-dioxido-1-benzithiepin-5-yl)phenoxy)methyl)phenyl)methyl-4-aza-1-azoniabicyclo[2.2.2]octane chloride]
Desorption % Weight Change (0.45% RH at 25° C.): 0.057% | Sorption % Weight Change (0.45% RH at 25° C.): 0.057% | Desorption % Weight Change (9.2% RH at 25° C.): 0.997% | Sorption % Weight Change (9.2% RH at 25° C.): 0.9575% | Desorption % Weight Change (20.05% RH at 25° C.): 2.1025% | Sorption % Weight Change (20.05% RH at 25° C.): 2.016% | Desorption % Weight Change (29.75% RH at 25° C.): 3.599% | Sorption % Weight Change (29.75% RH at 25° C.): 3.4105% | Desorption % Weight Change (39.4% RH at 25° C.): 4.743% | Sorption % Weight Change (39.4% RH at 25° C.): 4.282% | Desorption % Weight Change (49.55% RH at 25° C.): 5.321% | Sorption % Weight Change (49.55% RH at 25° C.): 4.928% | Desorption % Weight Change (59.4% RH at 25° C.): 5.726% | Sorption % Weight Change (59.4% RH at 25° C.): 5.356% | Desorption % Weight Change (69.05% RH at 25° C.): 6.054% | Sorption % Weight Change (69.05% RH at 25° C.): 5.706% | Desorption % Weight Change (78.8% RH at 25° C.): 6.357% | Sorption % Weight Change (78.8% RH at 25° C.): 6.109% | Desorption % Weight Change (88.5% RH at 25° C.): 6.734% | Sorption % Weight Change (88.5% RH at 25° C.): 6.734%

CCCCC1(CCCC)CS(=O)(=O)c2ccc(N(C)C)cc2[C@@H](c2ccc(OCc3ccc(C[N+]45CCN(CC4)CC5)cc3)cc2)[C@H]1O [Form II, (4R,5R)-1-((4-(4-(3,3-dibutyl-7-(dimethylamino)-2,3,4,5-tetrahydro-4-hydroxy-1,1-dioxido-1-benzithiepin-5-yl)phenoxy)methyl)phenyl)methyl-4-aza-1-azoniabicyclo[2.2.2]octane chloride]
Desorption % Weight Change (1.3% RH at 25° C.): −0.02695% | Sorption % Weight Change (1.3% RH at 25° C.): −0.02695% | Desorption % Weight Change (9.35% RH at 25° C.): 0.04235% | Sorption % Weight Change (9.35% RH at 25° C.): 0.04715% | Desorption % Weight Change (20.25% RH at 25° C.): 0.09715% | Sorption % Weight Change (20.25% RH at 25° C.): 0.1058% | Desorption % Weight Change (29.75% RH at 25° C.): 0.1444% | Sorption % Weight Change (29.75% RH at 25° C.): 0.1376% | Desorption % Weight Change (39.55% RH at 25° C.): 0.1866% | Sorption % Weight Change (39.55% RH at 25° C.): 0.1809% | Desorption % Weight Change (49.7% RH at 25° C.): 0.2636% | Sorption % Weight Change (49.7% RH at 25° C.): 0.2386% | Desorption % Weight Change (59.5% RH at 25° C.): 0.331% | Sorption % Weight Change (59.5% RH at 25° C.): 0.304% | Desorption % Weight Change (69.1% RH at 25° C.): 0.3983% | Sorption % Weight Change (69.1% RH at 25° C.): 0.3945% | Desorption % Weight Change (78.65% RH at 25° C.): 0.4849% | Sorption % Weight Change (78.65% RH at 25° C.): 0.4695% | Desorption % Weight Change (88.5% RH at 25° C.): 0.6446% | Sorption % Weight Change (88.5% RH at 25° C.): 0.6446% | hygroscopicity (crystalline form, 80% RH air at 25° C.): essentially non-hygroscopic | weight gain when equilibrated under 80% relative humidity (RH) air at 25° C. (dry sample (dried at essentially 0% RH, about 25° C., dry nitrogen purge)): less than 1 % of its own weight
